{
  "source": "patent US20230027066A1",
  "about": "(Urovant Sciences GmbH, priority 2019, published 2023)",
  "key": {"[1]": {"assay": "Phase 1 program safety (16 Phase 1 studies)", "assay_type": "in vivo", "details": "single doses 2 to 600 mg, multiple doses 25 to 400 mg up to 28 days", "from_the_text": "Safety data from 16 Phase 1 studies, which include 15 completed Phase 1 studies and 1 study that was terminated early (this study was terminated for reasons unrelated to efficacy or safety) was collected."}, "[2]": {"assay": "QTc study comparison mirabegron and vibegron, BP and HR in healthy subjects", "assay_type": "in vivo, human", "details": "for HR change at Cmax, placebo adjusted / SBP change 24-hour average, placebo adjusted / SBP change at Cmax, placebo adjusted: healthy subjects"}, "[3]": {"assay": "ABPM study, in-clinic vital signs", "assay_type": "in vivo, human", "details": "SAF", "protocol": "Safety was evaluated by assessment of clinical laboratory tests, physical examinations, and vital signs measurements from office visits at various time points during the study, and by the documentation of AEs.\nTables 106, 107, and 108 show the changes to in-clinic measurements of systolic blood pressure, diastolic blood pressure, and heart rate over the treatment period.\nFor subjects with a body weight of at least about 65.4 kg, there was no difference between treatment and placebo in the number of subjects with a ≥5, ≥10, or ≥15 mm Hg increase in systolic blood pressure. The same was true for subjects over the age of 66."}, "[4]": {"details": "Baseline to Day 28, subgroup Age <= 75th percentile (66 years)"}, "[5]": {"details": "Baseline to Day 28, subgroup Age > 75th percentile (66 years)"}, "[6]": {"details": "Baseline to Day 28, subgroup Body Weight <= 25th Percentile (65.4 kg)"}, "[7]": {"details": "Baseline to Day 28, subgroup Body Weight > 25th Percentile (65.4 kg)"}, "[8]": {"details": "Baseline to Day 28, subgroup Pre-existing hypertension: NO"}, "[9]": {"details": "Baseline to Day 28, subgroup Pre-existing hypertension: YES"}, "[10]": {"details": "Baseline to Day 28, subgroup eGFR <= 25th Percentile (72 mL/min/1.73 m^2)"}, "[11]": {"details": "Baseline to Day 28, subgroup eGFR > 25th Percentile (72 mL/min/1.73 m^2)"}},
  "data": [
    {"smiles": "O=C(Nc1ccc(C[C@@H]2CC[C@H]([C@H](O)c3ccccc3)N2)cc1)[C@@H]1CCc2nccc(=O)n21", "note": "[Vibegron, (6S)-N-[4-[[(2S,5R)−5-[(R)-hydroxy(phenyl)methyl]pyrrolidin−2-yl]methyl]phenyl]−4-oxo−7,8-dihydro−6H-pyrrolo[1,2-a]pyrimidine−6-carboxamide]", "values": [
      {"measurement": "tolerability across the Phase 1 program", "setting": "[1]", "value": "generally well tolerated"},
      {"measurement": "SBP change 24-hour average, 75 mg estimate, placebo adjusted", "setting": "[2]; 75 mg estimate from QT study", "value": "24-hour average: 0.1 mmHg"},
      {"measurement": "SBP change at Cmax, 75 mg estimate, placebo adjusted", "setting": "[2]; 75 mg estimate from QT study", "value": "At Cmax: 0.4 mmHg"},
      {"measurement": "HR change at Cmax, placebo adjusted", "setting": "[2]; 200 mg single-dose", "value": 4.1, "unit": "BPM"},
      {"measurement": "SBP change 24-hour average, placebo adjusted", "setting": "[2]; 200 mg single-dose", "value": "+0.7 mmHg"},
      {"measurement": "SBP change at Cmax, placebo adjusted", "setting": "[2]; 200 mg single-dose", "value": "+2.2 mmHg"},
      {"measurement": "HR change at Cmax, placebo adjusted", "setting": "[2]; 400 mg single-dose", "value": 11.2, "unit": "BPM"},
      {"measurement": "SBP change 24-hour average, placebo adjusted", "setting": "[2]; 400 mg single-dose", "value": 1.3, "unit": "mmHg"},
      {"measurement": "SBP change at Cmax, placebo adjusted", "setting": "[2]; 400 mg single-dose", "value": "+3.97 mmHg"},
      {"measurement": "In-clinic DBP (mmHg) change from baseline ≥5, subjects", "setting": "[3]; Baseline to Day 28", "value": "24 (23.3) n (%)"},
      {"measurement": "In-clinic DBP (mmHg) change from baseline ≥10, subjects", "setting": "[3]; Baseline to Day 28", "value": "9 (8.7) n (%)"},
      {"measurement": "In-clinic DBP (mmHg) change from baseline ≥15, subjects", "setting": "[3]; Baseline to Day 28", "value": "2 (1.9) n (%)"},
      {"measurement": "In-clinic HR (bpm) change from baseline ≥5, subjects", "setting": "[3]; Baseline to Day 28", "value": "24 (23.3) n (%)"},
      {"measurement": "In-clinic HR (bpm) change from baseline ≥10, subjects", "setting": "[3]; Baseline to Day 28", "value": "8 (7.8) n (%)"},
      {"measurement": "In-clinic HR (bpm) change from baseline ≥15, subjects", "setting": "[3]; Baseline to Day 28", "value": "3 (2.9) n (%)"},
      {"measurement": "In-clinic SBP (mmHg) change from baseline ≥5, subjects", "setting": "[3]; Baseline to Day 28", "value": "33 (32.0) n (%)"},
      {"measurement": "In-clinic SBP (mmHg) change from baseline ≥10, subjects", "setting": "[3]; Baseline to Day 28", "value": "22 (21.4) n (%)"},
      {"measurement": "In-clinic SBP (mmHg) change from baseline ≥15, subjects", "setting": "[3]; Baseline to Day 28", "value": "10 (9.7) n (%)"},
      {"measurement": "In-clinic SBP change from baseline ≥5, subjects", "setting": "[3]; [4]", "value": "28 (34.6) n (%)"},
      {"measurement": "In-clinic SBP change from baseline ≥10, subjects", "setting": "[3]; [4]", "value": "18 (22.2) n (%)"},
      {"measurement": "In-clinic SBP change from baseline ≥15, subjects", "setting": "[3]; [4]", "value": "9 (11.1) n (%)"},
      {"measurement": "In-clinic SBP change from baseline ≥5, subjects", "setting": "[3]; [5]", "value": "5 (22.7) n (%)"},
      {"measurement": "In-clinic SBP change from baseline ≥10, subjects", "setting": "[3]; [5]", "value": "4 (18.2) n (%)"},
      {"measurement": "In-clinic SBP change from baseline ≥15, subjects", "setting": "[3]; [5]", "value": "1 (4.5) n (%)"},
      {"measurement": "In-clinic SBP change from baseline ≥5, subjects", "setting": "[3]; [6]", "value": "9 (32.1) n (%)"},
      {"measurement": "In-clinic SBP change from baseline ≥10, subjects", "setting": "[3]; [6]", "value": "6 (21.4) n (%)"},
      {"measurement": "In-clinic SBP change from baseline ≥15, subjects", "setting": "[3]; [6]", "value": "2 (7.1) n (%)"},
      {"measurement": "In-clinic SBP change from baseline ≥5, subjects", "setting": "[3]; [7]", "value": "24 (32.0) n (%)"},
      {"measurement": "In-clinic SBP change from baseline ≥10, subjects", "setting": "[3]; [7]", "value": "16 (21.3) n (%)"},
      {"measurement": "In-clinic SBP change from baseline ≥15, subjects", "setting": "[3]; [7]", "value": "8 (10.7) n (%)"},
      {"measurement": "In-clinic SBP change from baseline ≥5, subjects", "setting": "[3]; [8]", "value": "20 (31.3) n (%)"},
      {"measurement": "In-clinic SBP change from baseline ≥10, subjects", "setting": "[3]; [8]", "value": "13 (20.3) n (%)"},
      {"measurement": "In-clinic SBP change from baseline ≥15, subjects", "setting": "[3]; [8]", "value": "6 (9.4) n (%)"},
      {"measurement": "In-clinic SBP change from baseline ≥5, subjects", "setting": "[3]; [9]", "value": "13 (33.3) n (%)"},
      {"measurement": "In-clinic SBP change from baseline ≥10, subjects", "setting": "[3]; [9]", "value": "9 (23.1) n (%)"},
      {"measurement": "In-clinic SBP change from baseline ≥15, subjects", "setting": "[3]; [9]", "value": "4 (10.3) n (%)"},
      {"measurement": "In-clinic SBP change from baseline ≥5, subjects", "setting": "[3]; [10]", "value": "7 (23.3) n (%)"},
      {"measurement": "In-clinic SBP change from baseline ≥10, subjects", "setting": "[3]; [10]", "value": "4 (13.3) n (%)"},
      {"measurement": "In-clinic SBP change from baseline ≥15, subjects", "setting": "[3]; [10]", "value": "1 (3.3) n (%)"},
      {"measurement": "In-clinic SBP change from baseline ≥5, subjects", "setting": "[3]; [11]", "value": "26 (35.6) n (%)"},
      {"measurement": "In-clinic SBP change from baseline ≥10, subjects", "setting": "[3]; [11]", "value": "18 (24.7) n (%)"},
      {"measurement": "In-clinic SBP change from baseline ≥15, subjects", "setting": "[3]; [11]", "value": "9 (12.3) n (%)"},
      {"measurement": "In-clinic DBP (mmHg) change from baseline ≥5, subjects", "setting": "[3]; Baseline to End of Treatment", "value": "31 (29.5) n (%)"},
      {"measurement": "In-clinic DBP (mmHg) change from baseline ≥10, subjects", "setting": "[3]; Baseline to End of Treatment", "value": "12 (11.4) n (%)"},
      {"measurement": "In-clinic DBP (mmHg) change from baseline ≥15, subjects", "setting": "[3]; Baseline to End of Treatment", "value": "7 (6.7) n (%)"},
      {"measurement": "In-clinic HR (bpm) change from baseline ≥5, subjects", "setting": "[3]; Baseline to End of Treatment", "value": "37 (35.2) n (%)"},
      {"measurement": "In-clinic HR (bpm) change from baseline ≥10, subjects", "setting": "[3]; Baseline to End of Treatment", "value": "12 (11.4) n (%)"},
      {"measurement": "In-clinic HR (bpm) change from baseline ≥15, subjects", "setting": "[3]; Baseline to End of Treatment", "value": "4 (3.8) n (%)"}
    ]}
  ]
}
